Experimental data: the supplement of paper PMC6045584
± gives the standard deviation of the averaged measurements.

Legend:
IMATINIB = compound: Cc1ccc(NC(=O)c2ccc(CN3CCN(C)CC3)cc2)cc1Nc1nccc(-c2cccnc2)n1 [IMATINIB]; experiment: surviving fraction relative to DMSO-only wells; higher = less growth inhibition; conditions: exposure time: 5 days
Method in brief: (§1)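 Tumour cell lines in log phase were plated in 384-well plates at 250–500 cells per well, then, after 24 hours, exposed continuously for five days to inhibitors at 0.5, 1, 5, 10, 50, 100, 500 and 1000 nM. Viability came from CellTiter-Glo luminescence, and surviving fraction is that signal normalised to the median of DMSO-only wells. Plates were read after 10 minutes at room temperature, and each line, screened three times, was kept only when replicate Pearson r was >0.7 and median Z' was >0.3.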

VORINOSTAT = compound: O=C(CCCCCCC(=O)Nc1ccccc1)NO [VORINOSTAT]; experiment: as above; conditions: exposure time: 5 days
Method in brief: as §1

## DU4475 BREAST
IMATINIB; 0.5 nM
  surviving fraction: 1.04 ± 0.18
IMATINIB; 1 nM
  surviving fraction: 1.1 ± 0.028
IMATINIB; 10 nM
  surviving fraction: 1.11 ± 0.13
IMATINIB; 50 nM
  surviving fraction: 1.09 ± 0.15
IMATINIB; 500 nM
  surviving fraction: 1.21 ± 0.049
IMATINIB; 1000 nM
  surviving fraction: 1.09 ± 0.1
VORINOSTAT; 0.5 nM
  surviving fraction: 1.41 ± 0.74
VORINOSTAT; 1 nM
  surviving fraction: 1.08 ± 0.76
VORINOSTAT; 5 nM
  surviving fraction: 1.05 ± 0.56
VORINOSTAT; 10 nM
  surviving fraction: 1.25 ± 0.66
VORINOSTAT; 50 nM
  surviving fraction: 1.07 ± 0.57
VORINOSTAT; 100 nM
  surviving fraction: 0.952 ± 0.38
VORINOSTAT; 500 nM
  surviving fraction: 0.627 ± 0.22
VORINOSTAT; 1000 nM
  surviving fraction: 0.431 ± 0.17

## H23 LUNG
IMATINIB; 0.5 nM
  surviving fraction: 1.04 ± 0.049
IMATINIB; 1 nM
  surviving fraction: 1.01 ± 0.021
IMATINIB; 5 nM
  surviving fraction: 1.06 ± 0.031
IMATINIB; 10 nM
  surviving fraction: 1.07 ± 0.0035
IMATINIB; 50 nM
  surviving fraction: 1.08 ± 0.07
IMATINIB; 100 nM
  surviving fraction: 1.13 ± 0.061
IMATINIB; 500 nM
  surviving fraction: 1.12 ± 0.066
IMATINIB; 1000 nM
  surviving fraction: 1.13 ± 0.065
VORINOSTAT; 0.5 nM
  surviving fraction: 1.04 ± 0.048
VORINOSTAT; 1 nM
  surviving fraction: 0.983 ± 0.034
VORINOSTAT; 5 nM
  surviving fraction: 1.04 ± 0.036
VORINOSTAT; 10 nM
  surviving fraction: 1 ± 0.0087
VORINOSTAT; 50 nM
  surviving fraction: 1.18 ± 0.034
VORINOSTAT; 100 nM
  surviving fraction: 1.27 ± 0.037
VORINOSTAT; 500 nM
  surviving fraction: 1.44 ± 0.1
VORINOSTAT; 1000 nM
  surviving fraction: 1.29 ± 0.062

## HCC78 LUNG
IMATINIB; 0.5 nM
  surviving fraction: 0.936 ± 0.094
IMATINIB; 1 nM
  surviving fraction: 1.03 ± 0.16
IMATINIB; 5 nM
  surviving fraction: 0.997 ± 0.043
IMATINIB; 50 nM
  surviving fraction: 1.04 ± 0.072
IMATINIB; 500 nM
  surviving fraction: 1.34 ± 0.16
IMATINIB; 1000 nM
  surviving fraction: 1.18 ± 0.091
VORINOSTAT; 0.5 nM
  surviving fraction: 1.01 ± 0.12
VORINOSTAT; 1 nM
  surviving fraction: 0.818 ± 0.22
VORINOSTAT; 5 nM
  surviving fraction: 0.852 ± 0.12
VORINOSTAT; 10 nM
  surviving fraction: 1 ± 0.091
VORINOSTAT; 50 nM
  surviving fraction: 0.947 ± 0.22
VORINOSTAT; 100 nM
  surviving fraction: 1.06 ± 0.019
VORINOSTAT; 500 nM
  surviving fraction: 0.326 ± 0.042
VORINOSTAT; 1000 nM
  surviving fraction: 0.0463 ± 0.011

## HCC202 BREAST
IMATINIB; 0.5 nM
  surviving fraction: 1.44 ± 0.69
IMATINIB; 1 nM
  surviving fraction: 0.908 ± 0.013
IMATINIB; 5 nM
  surviving fraction: 1.28 ± 0.18
IMATINIB; 50 nM
  surviving fraction: 1.11 ± 0.34
IMATINIB; 100 nM
  surviving fraction: 1.32 ± 0.45
IMATINIB; 500 nM
  surviving fraction: 1.3 ± 0.15
IMATINIB; 1000 nM
  surviving fraction: 1.39 ± 0.35
VORINOSTAT; 0.5 nM
  surviving fraction: 1.19 ± 0.26
VORINOSTAT; 1 nM
  surviving fraction: 1.12 ± 0.13
VORINOSTAT; 5 nM
  surviving fraction: 1.31 ± 0.11
VORINOSTAT; 10 nM
  surviving fraction: 1.12 ± 0.12
VORINOSTAT; 50 nM
  surviving fraction: 0.808 ± 0.14
VORINOSTAT; 100 nM
  surviving fraction: 0.777 ± 0.34
VORINOSTAT; 500 nM
  surviving fraction: 0.476 ± 0.12
VORINOSTAT; 1000 nM
  surviving fraction: 0.295 ± 0.049

## HCC1395 BREAST
IMATINIB; 0.5 nM
  surviving fraction: 1.23 ± 0.023
IMATINIB; 1 nM
  surviving fraction: 1.06 ± 0.11
IMATINIB; 5 nM
  surviving fraction: 1.24 ± 0.097
IMATINIB; 10 nM
  surviving fraction: 1.36 ± 0.13
IMATINIB; 50 nM
  surviving fraction: 1.19 ± 0.16
IMATINIB; 100 nM
  surviving fraction: 1.36 ± 0.049
IMATINIB; 500 nM
  surviving fraction: 1.15 ± 0.068
IMATINIB; 1000 nM
  surviving fraction: 1.11 ± 0.29
VORINOSTAT; 0.5 nM
  surviving fraction: 1.1 ± 0.23
VORINOSTAT; 1 nM
  surviving fraction: 1.05 ± 0.16
VORINOSTAT; 5 nM
  surviving fraction: 1.31 ± 0.066
VORINOSTAT; 10 nM
  surviving fraction: 1.11 ± 0.11
VORINOSTAT; 50 nM
  surviving fraction: 1.25 ± 0.11
VORINOSTAT; 100 nM
  surviving fraction: 1.21 ± 0.042
VORINOSTAT; 500 nM
  surviving fraction: 1.03 ± 0.11
VORINOSTAT; 1000 nM
  surviving fraction: 0.94 ± 0.1

## HCC1806 BREAST
IMATINIB; 0.5 nM
  surviving fraction: 1.06 ± 0.044
IMATINIB; 1 nM
  surviving fraction: 1.05 ± 0.093
IMATINIB; 5 nM
  surviving fraction: 1.12 ± 0.07
IMATINIB; 10 nM
  surviving fraction: 1.16 ± 0.021
IMATINIB; 50 nM
  surviving fraction: 1.15 ± 0.15
IMATINIB; 100 nM
  surviving fraction: 1.24 ± 0.08
IMATINIB; 500 nM
  surviving fraction: 0.983 ± 0.077
IMATINIB; 1000 nM
  surviving fraction: 0.956 ± 0.15
VORINOSTAT; 0.5 nM
  surviving fraction: 1.13 ± 0.16
VORINOSTAT; 1 nM
  surviving fraction: 0.721 ± 0.61
VORINOSTAT; 5 nM
  surviving fraction: 0.825 ± 0.54
VORINOSTAT; 10 nM
  surviving fraction: 0.77 ± 0.64
VORINOSTAT; 50 nM
  surviving fraction: 1.18 ± 0.051
VORINOSTAT; 100 nM
  surviving fraction: 1.24 ± 0.16
VORINOSTAT; 500 nM
  surviving fraction: 0.852 ± 0.073
VORINOSTAT; 1000 nM
  surviving fraction: 0.527 ± 0.089
